Values joined by “and” are separate entries in the source; they are usually repeats but may differ in a detail not shown here. Equal entries are not always repeated.
Key:
AMPKα2β1γ1 [1] = biological target: T1, AMPKα2β1γ1 (Homo sapiens, UniProt P54646); experiment: Cell-free AMPK kinase assay (SAMS peptide); format: biochemical; conditions: 200 μM ATP; 0 to 1 μM BAY-974
T1 construct: made in house; host or cells: HEK293 (transient transfection, anti-FLAG immunoprecipitate)
Procedure: (§1) Heterotrimeric human AMPK FLAG- α1β1γ1, FLAG- α2β1γ1, and FLAG- α2β2γ1, as well as human FLAG-CaMKK2 and FLAG-ULK1, were produced in mammalian HEK293 cells as described ([66], [67]). For AMPK expression, the cells were triply transfected at 60% confluency using FuGene HD (Roche Applied Science) and 1 μg of pcDNA3 plasmid expression constructs for AMPK Flag-α1, β1-Myc, β2-Myc, and HA-γ1. For CaMKK2 expression, the cells were transfected with 1 μg of pcDNA3 Flag-CaMKK2 plasmid. For ULK1 expression, the cells were transfected with […] of pcDNA3 FLAG-ULK1 plasmid. After 48 hours, the transfected cells were harvested by rinsing with ice-cold PBS, followed by rapid lysis using 500 μl of lysis buffer. AMPK, CaMKK2, and ULK1 kinase activities were determined by phosphorylation of synthetic peptide substrates: SAMS (HMRSAMSGLHLVKRR), CaMKKtide ([…]), and S108tide. (KLPLTRSHNNFVARRR), respectively. Briefly, recombinant AMPK, CaMKK2, or ULK1 were immunoprecipitated from 10 μg of transfected cultured cell lysate using 10 μl of anti-FLAG M2 agarose beads [50% (v/v)] (Merck MilliporeSigma), washed, and then added to a 25-μl reaction containing assay buffer [50 mM Hepes-NaOH (pH 7.4), 1 mM DTT, and 0.02% (v/v) Brij-35], 200 μM synthetic peptide substrate (SAMS, CaMKKtide, or S108tide), 200 or 20 μM [γ-^32P]-ATP (PerkinElmer), 5 mM MgCl2, in the presence of 0 to 1 μM BAY-3827 or BAY-974. Reactions were performed at 30°C and terminated after 10 min by spotting 15 μl onto phosphocellulose paper. Radioactivity was quantified by liquid scintillation counting. Data visualization and nonlinear regression fitting were performed in GraphPad Prism v10.
(§2) Data points are plotted as means ± SEM. Data were inputted, and all statistical tests were performed using GraphPad Prism, version 10.1.0. One- or two-way analysis of variance (ANOVA) statistical tests were conducted using Tukey’s correction for multiple comparisons; specific test will be stated in the figure legend. Significance was accepted as P < 0.05. N number and statistical details for each experiment are reported in each figure legend. […] To estimate IC50 values, nonlinear regression fitting was conducted using the model (Inhibitor) versus response—variable slope in GraphPad Prism (version 10.1.0) and estimating values reported in nanomolar. To estimate binding affinities (Kd) from performed spectral shift binding assays, data were fitted using a one-site total model [Y = BmaxX/(Kd + X) + NSX + Background] where X is the ligand concentration, Bmax represents the maximum binding, and NS is the slope of the nonlinear regression of Y/X. Values are reported in means ± SEM in micromolar.

AMPKα2β2γ1 [2] = biological target: T2, AMPKα2β2γ1 (Homo sapiens, UniProt P54646); experiment: Cell-free AMPK kinase assay (SAMS peptide); format: biochemical; conditions: 200 μM ATP; 0 to 1 μM compound
T2 construct: made in house; host or cells: HEK293 (transient transfection, anti-FLAG immunoprecipitate)
T2 sequence (P54646 whole entry): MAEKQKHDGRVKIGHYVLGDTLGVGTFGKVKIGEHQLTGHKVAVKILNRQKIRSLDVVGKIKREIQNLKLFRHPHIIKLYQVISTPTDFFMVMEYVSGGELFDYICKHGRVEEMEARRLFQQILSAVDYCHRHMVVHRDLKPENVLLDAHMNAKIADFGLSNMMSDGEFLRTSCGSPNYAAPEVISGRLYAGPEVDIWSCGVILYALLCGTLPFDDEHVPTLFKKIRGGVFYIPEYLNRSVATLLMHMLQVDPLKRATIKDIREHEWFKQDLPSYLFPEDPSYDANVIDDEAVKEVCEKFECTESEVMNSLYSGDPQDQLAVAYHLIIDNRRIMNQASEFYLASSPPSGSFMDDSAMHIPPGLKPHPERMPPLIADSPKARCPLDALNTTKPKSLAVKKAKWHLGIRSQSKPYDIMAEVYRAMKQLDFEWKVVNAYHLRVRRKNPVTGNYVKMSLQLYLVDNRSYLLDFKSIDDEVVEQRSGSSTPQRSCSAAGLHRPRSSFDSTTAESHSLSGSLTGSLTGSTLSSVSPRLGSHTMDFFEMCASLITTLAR
T2 sequence (O43741 whole entry partner): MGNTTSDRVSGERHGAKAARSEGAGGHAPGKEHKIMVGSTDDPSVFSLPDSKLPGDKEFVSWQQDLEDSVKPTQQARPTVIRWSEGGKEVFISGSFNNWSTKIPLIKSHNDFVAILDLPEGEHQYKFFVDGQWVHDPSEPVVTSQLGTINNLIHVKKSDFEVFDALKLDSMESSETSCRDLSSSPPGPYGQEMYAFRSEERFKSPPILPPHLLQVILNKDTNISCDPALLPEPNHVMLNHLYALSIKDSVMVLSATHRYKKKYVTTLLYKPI
T2 sequence (P54619 whole entry partner): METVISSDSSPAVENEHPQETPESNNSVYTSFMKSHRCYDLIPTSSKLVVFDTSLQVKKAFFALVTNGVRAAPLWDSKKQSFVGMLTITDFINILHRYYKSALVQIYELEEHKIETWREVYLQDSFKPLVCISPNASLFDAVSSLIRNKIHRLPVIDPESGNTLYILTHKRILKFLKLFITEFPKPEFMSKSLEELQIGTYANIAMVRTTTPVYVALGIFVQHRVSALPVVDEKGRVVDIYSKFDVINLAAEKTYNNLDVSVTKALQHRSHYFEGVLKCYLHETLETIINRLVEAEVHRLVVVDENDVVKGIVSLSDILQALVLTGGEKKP
Procedure: as §1, §2

AMPKα1β1γ1 [3] = biological target: T3, AMPKα1β1γ1 (Homo sapiens, UniProt Q13131); experiment: Cell-free AMPK kinase assay (SAMS peptide); format: biochemical; conditions: 200 μM ATP; 0 to 1 μM compound
T3 construct: made in house; host or cells: HEK293 (transient transfection, anti-FLAG immunoprecipitate)
T3 sequence (Q13131 whole entry): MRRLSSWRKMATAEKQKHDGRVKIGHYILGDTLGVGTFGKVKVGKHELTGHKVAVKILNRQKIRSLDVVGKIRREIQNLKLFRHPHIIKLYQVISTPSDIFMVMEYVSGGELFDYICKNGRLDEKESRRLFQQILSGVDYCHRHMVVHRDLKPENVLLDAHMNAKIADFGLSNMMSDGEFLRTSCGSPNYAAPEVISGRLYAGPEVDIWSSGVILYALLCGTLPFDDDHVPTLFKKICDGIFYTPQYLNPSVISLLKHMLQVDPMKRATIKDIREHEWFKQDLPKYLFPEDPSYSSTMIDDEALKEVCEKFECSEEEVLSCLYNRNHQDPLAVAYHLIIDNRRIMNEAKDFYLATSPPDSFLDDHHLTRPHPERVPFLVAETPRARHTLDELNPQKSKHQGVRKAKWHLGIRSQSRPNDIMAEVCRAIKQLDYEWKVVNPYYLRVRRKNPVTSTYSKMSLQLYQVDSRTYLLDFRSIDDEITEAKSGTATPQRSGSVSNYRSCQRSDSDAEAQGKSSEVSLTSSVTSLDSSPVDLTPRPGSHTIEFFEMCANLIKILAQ
T3 sequence (Q9Y478 whole entry partner): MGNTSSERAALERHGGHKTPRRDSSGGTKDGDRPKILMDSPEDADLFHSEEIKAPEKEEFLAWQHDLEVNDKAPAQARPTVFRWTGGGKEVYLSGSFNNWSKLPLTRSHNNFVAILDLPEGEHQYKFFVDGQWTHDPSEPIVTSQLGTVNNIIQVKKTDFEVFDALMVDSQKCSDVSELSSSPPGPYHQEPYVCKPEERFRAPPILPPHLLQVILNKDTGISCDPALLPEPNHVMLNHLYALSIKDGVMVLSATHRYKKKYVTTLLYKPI
T3 sequence (P54619 whole entry partner): as the sequence (P54619 whole entry partner) above
Procedure: as §1, §2

mouse primary adipocytes = experiment: Glucose uptake of primary adipocytes; format: cell-based; conditions: varying doses
[4] = tested on: AMPKα1α2−/− DKO primary hepatocytes; experiment: Lipogenesis assay ([14C]-acetate incorporation into fatty acids); format: cell-based, mouse
Procedure: Mouse hepatocytes were isolated by collagenase perfusion as previously described ([47]). Hepatocytes were seeded in medium Eagle-199 (MEM-199) (#41150, Thermo Fisher Scientific) containing penicillin G (100 U/ml), streptomycin (100 μg/ml), and 10% (v/v) fetal bovine serum (FBS). Hepatocytes were left for attachment (3 to 4 hours) and serum-starved overnight at 37°C with 5% CO2 in MEM-199 supplemented with penicillin G (100 U/ml), streptomycin (100 μg/ml), 10 nM insulin, and 100 nM dexamethasone. […] Cells were then harvested in 0.5 ml of phosphate-buffered saline (PBS), transferred into 1 ml of 40% KOH and 2 ml of methanol followed by 1-hour incubation at 80°C. Lipids were […] by acidifying the samples in 37% HCl and extracted with petroleum ether. Extracts were allowed to evaporate to dryness and then dissolved in Ultima Gold scintillation fluid for determination of [^14C]-acetate incorporation into lipids.

AMPKα2β1γ1 [5] = biological target: T4, AMPKα2β1γ1 (Homo sapiens, UniProt P54619+P54646+Q9Y478); experiment: Cell-free AMPK kinase assay (SAMS peptide); format: biochemical
T4 construct: made in house; host or cells: HEK293 (transient transfection, anti-FLAG immunoprecipitate)
T4 sequence (P54646 whole entry): as the sequence (P54646 whole entry) above
T4 sequence (Q9Y478 whole entry partner): as the sequence (Q9Y478 whole entry partner) above
T4 sequence (P54619 whole entry partner): as the sequence (P54619 whole entry partner) above
Procedure: as §1, §2

AMPKα1β1γ1 [6] = biological target: T5, AMPKα1β1γ1 (Homo sapiens, UniProt P54619+Q13131+Q9Y478); experiment: Cell-free AMPK kinase assay (SAMS peptide); format: biochemical
T5 construct: made in house; host or cells: HEK293 (transient transfection, anti-FLAG immunoprecipitate)
T5 sequence (Q13131 whole entry): as the sequence (Q13131 whole entry) above
T5 sequence (Q9Y478 whole entry partner): as the sequence (Q9Y478 whole entry partner) above
T5 sequence (P54619 whole entry partner): as the sequence (P54619 whole entry partner) above
Procedure: as §1, §2

AMPKα2β2γ1 [7] = biological target: T6, AMPKα2β2γ1 (Homo sapiens, UniProt O43741+P54619+P54646); experiment: Cell-free AMPK kinase assay (SAMS peptide); format: biochemical
T6 construct: made in house; host or cells: HEK293 (transient transfection, anti-FLAG immunoprecipitate)
T6 sequence (P54646 whole entry): as the sequence (P54646 whole entry) above
T6 sequence (O43741 whole entry partner): as the sequence (O43741 whole entry partner) above
T6 sequence (P54619 whole entry partner): as the sequence (P54619 whole entry partner) above
Procedure: as §1, §2

T1 sequence (P54646 whole entry): as the sequence (P54646 whole entry) above
T1 sequence (Q9Y478 whole entry partner): as the sequence (Q9Y478 whole entry partner) above
T1 sequence (P54619 whole entry partner): as the sequence (P54619 whole entry partner) above

| SMILES | inhibitory effect on AMPK complex (AMPKα2β1γ1 [1]) | inhibitory effect on AMPK complex (AMPKα2β2γ1 [2]) | inhibitory effect on AMPK complex (AMPKα1β1γ1 [3]) | basal and insulin-stimulated glucose uptake (mouse primary adipocytes) | effect on lipogenesis [4] | IC50 (AMPKα2β1γ1 [5]; 20 μM ATP) | IC50 (AMPKα2β1γ1 [5]; 200 μM ATP) | IC50 (AMPKα1β1γ1 [6]; 20 μM ATP) [nM] | IC50 (AMPKα1β1γ1 [6]; 200 μM ATP) [nM] | IC50 (AMPKα2β2γ1 [7]; 20 μM ATP) | IC50 (AMPKα2β2γ1 [7]; 200 μM ATP) [nM] |
| --- | --- | --- | --- | --- | --- | --- | --- | --- | --- | --- | --- |
| CC1=C(C#N)C(c2ccc3c(c2)c(NC(=O)c2ccccc2C)nn3C)C(C#N)=C(C)N1 [BAY-974, N-[5-(3,5-dicyano-2,6-dimethyl-1,4-dihydropyridin-4-yl)-1-methylindazol-3-yl]-2-methylbenzamide] | no effect | no effect | no effect |  |  |  |  |  |  |  |  |
| CCc1ccccc1C(=O)Nc1n[nH]c2c(C)c(F)c(C3C(C#N)=C(C)N(C)C(C)=C3C#N)cc12 [BAY-3827, N-[5-(3,5-dicyano-1,2,6-trimethyl-4H-pyridin-4-yl)-6-fluoro-7-methyl-1H-indazol-3-yl]-2-ethylbenzamide] |  |  |  | not significantly affected | no effect | 4.1 nM and 4.08 nM | 57 nM and 57.1 nM | 1.8 | 31.2 | 2.8 nM and 2.83 nM | 36.5 |
